The target of assay [1] is RLuc8-KRasG12V / GFP-CRAF RBD interaction in HEK293T cells (Homo sapiens, UniProt P01116, G12V). As to the kind of experiment: Intracellular Ras-Raf BRET2 assay. In kind it is cell-based. Conditions: 0–15 μM, 20 h. (In general: In BRET a luciferase serves as donor, and the signal depends on an acceptor being close.)
Assay [2] has as its system H358 cells. As to the kind of experiment: MTT cell viability assay. In kind it is cell-based, human. Conditions: read-out: MTT EC50, 96 h, 10% FBS, mean ± SD. A general note: Formazan colour is commonly taken as a measure of viable cells.
The subject of assay [3] is H358 cells. The following applies: read-out: CellTiter-Glo EC50, 96 h, 10% FBS, mean ± SD. For orientation: In ATP-based viability assays light output follows the ATP content of the culture.
Assay [4] deals with RLuc8-KRasG12D / GFP-CRAF RBD interaction in HEK293T cells (Homo sapiens, UniProt P01116, G12D). As to the kind of experiment: Intracellular Ras-Raf BRET2 assay. In kind it is cell-based. Conditions: 0–15 μM, 20 h.

Where two headings read alike, the source gives them in different places.

This note sets out measurements from article PMC8429249 (Journal of medicinal chemistry, 2021).

In general, EC50 refers to the concentration needed to bring the measured effect to its halfway point.

On to ΦOSQΦΠ-K-fArR-J-BBK-NH2 [Peptide B3-4], for which, in assay [1], the “effect on BRET signal (KRasG12V-CRAF RBD)” value is “did not decrease the BRET signal”. Further, the figures for the EC50 in the assay on H358 cells [2] and with H358 cells [3] were 29 ± 6 µM and 22 ± 4 µM, respectively. The “effect on BRET signal (KRasG12D-CRAF RBD)” value in assay [4] was “did not decrease the BRET signal”.
